Measurements reported in ChEMBL document CHEMBL5674860, “Optimized Dual-Glo Assay to identify co-culture-induced drug vulnerabilities in 3D CRC models” (2024).

What was measured:
Format in all cases: functional, Homo sapiens
Parameters in all cases: dose or concentration left out as unconfirmed
[1] = system: Colon cancer organoid; experiment: Optimized Dual-Glo assay to identify co-culture induced drug vulnerabilities using donated chemical probes and chemogenomics kinase set in O06 CRC organoid and F06 CAF mono and co-culture. […] Cell viability is reported both mono and co-culture models.
[2] = system: Colon cancer organoid; experiment: Optimized Dual-Glo assay to identify co-culture induced drug vulnerabilities using donated chemical probes and chemogenomics kinase set in O14 CRC organoid and F14 CAF mono and co-culture. […] Cell viability is reported both mono and co-culture models.
[3] = system: Colon cancer organoid; experiment: Optimized Dual-Glo assay to identify co-culture induced drug vulnerabilities using donated chemical probes and chemogenomics kinase set in O20 CRC organoid and F20 CAF mono and co-culture. […] Cell viability is reported both mono and co-culture models.
[4] = Culture type Co-Culture, Transduced with Lucferase2-P2A-EGFP lentivirus
[5] = Culture type Co-Culture, Transduced with Renilla-dsRed lentivirus
[6] = Culture type Mono-Culture, Transduced with Lucferase2-P2A-EGFP lentivirus
[7] = Culture type Mono-Culture, Transduced with Renilla-dsRed lentivirus

Compound | Cell Viability [1, 4] [%] | Cell Viability [1, 5] [%] | Cell Viability [1, 6] [%] | Cell Viability [1, 7] [%] | Cell Viability [2, 4] [%] | Cell Viability [2, 5] [%] | Cell Viability [2, 6] [%] | Cell Viability [2, 7] [%] | Cell Viability [3, 4] [%] | Cell Viability [3, 5] [%] | Cell Viability [3, 6] [%] | Cell Viability [3, 7] [%]
O=C(CCCCCCNC(=O)c1cnc(N(c2ccccc2)c2ccccc2)nc1)NO [RICOLINOSTAT] | 80.064 | 143.43 | 66.4985 | 158.366 | 162.049 | 119.991 | 164.32 | 101.457 | 158.742 | 130.22 | 89.6658 | 107.525
CC(=O)N1CCC(c2ccc(C(=O)NC(=N)N)cc2C(F)(F)F)CC1 [BI 9627] | 150.087 | 189.046 | 112.79 | 98.1409 | 82.2007 | 132.273 | 72.3529 | 98.3882 | 96.0735 | 101.417 | 111.956 | 89.7357
CC(C)(C)OC(=O)N1CCCC1CNC1CCC(c2cc(F)ccc2F)(S(=O)(=O)c2ccc(Cl)cc2)CC1 (stereo unspecified) [GSI-NC] | 109.794 | 188.651 | 83.1857 | 79.5795 | 82.5384 | 107.99 | 97.33 | 95.7632 | 93.8933 | 100.789 | 108.621 | 95.0953
Cn1cc(-c2[nH]c3cc(NC(=O)[C@H](N)C4CCCCC4)cc4c3c2C=NNC4=O)cn1 | 9.334 | 180.436 | 3.761 | 107.077 | 1.93 | 159.115 | 4.927 | 82.9355 | 23.152 | 172.741 | 12.2596 | 94.31
O=C(NOC[C@H](O)CO)c1ccc(F)c(F)c1Nc1ccc(I)cc1F [MIRDAMETINIB] | 8.8965 | 49.9042 | 7.213 | 36.7215 | 4.141 | 39.571 | 2.016 | 25.7095 | 3.888 | 83.5811 | 5.164 | 45.8585
CC(=O)c1cc(-c2cc(C(=O)NC3CC3)ccc2C)c2ncccn12 | 95.4153 | 118.795 | 58.2009 | 132.016 | 100.15 | 126.848 | 106.827 | 109.242 | 68.1057 | 121.421 | 109.894 | 113.039
CCOc1ccn(-c2ccc(F)cc2)c(=O)c1C(=O)Nc1ccc(Oc2ccnc(N)c2Cl)c(F)c1 [BMS-777607] | 91.8113 | 94.0587 | 160.363 | 101.253 | 80.1334 | 87.7624 | 119.97 | 83.2963 | 100.473 | 72.8578 | 109.106 | 74.8704
CC(C)Oc1ccc(-c2c[nH]cc2CN(C)CCN)cc1 | 47.5822 | 178.793 | 30.9197 | 89.9891 | 38.1359 | 167.261 | 29.2667 | 88.3814 | 47.7555 | 252.195 | 49.3092 | 91.7276
O=C(O)CNC(=O)c1c(O)c2ccccc2n(Cc2ccccc2)c1=O | 145.736 | 124.036 | 103.118 | 94.3602 | 94.5212 | 101.447 | 96.8462 | 89.4149 | 96.4355 | 149.859 | 78.6397 | 102.057
O=C1c2ccc(Nc3ccc(F)cc3F)cc2CCc2ccc(OC[C@H](O)CO)cc21 [Skepinone-L] | 115.343 | 88.0925 | 155.18 | 90.6486 | 150.905 | 93.4936 | 165.429 | 90.897 | 88.3042 | 86.6611 | 113.922 | 95.9781
CC(C)(O)[C@H](F)CN1Cc2cc(NC(=O)c3cnn4cccnc34)c(N3CCOCC3)cc2C1=O | 120.796 | 89.8431 | 75.3772 | 93.3836 | 134.835 | 74.5238 | 106.331 | 78.3332 | 123.767 | 88.3121 | 99.4921 | 83.0265
N#CC1(c2ccccn2)CCN(Cc2cc(C(=O)N3CCCC3)c(=O)n3ccccc23)CC1 [MSD-M1PAM-NC] | 85.4848 | 72.6928 | 94.7679 | 111.31 | 77.5991 | 103.607 | 89.6138 | 86.9553 | 102.191 | 109.338 | 89.1265 | 100.403
NS(=O)(=O)c1cc(NC(=O)C2(c3ccccc3Cl)CC2)ccc1Oc1cccc(Cl)c1 [BAY-207] | 80.0716 | 155.512 | 77.1877 | 150.163 | 108.195 | 102.868 | 157.597 | 122.925 | 177.814 | 111.752 | 143.896 | 130.032
C[C@@]1(Cc2ccc(C#N)cc2)C(=O)N(c2cc(Cl)cc(Cl)c2)c2ncc(C(=O)NC3(c4nc(C5CCC5)no4)CC3)n21 [BI 9446] | 85.7019 | 100.079 | 74.4511 | 102.688 | 88.6006 | 103.948 | 113.423 | 106.796 | 72.3076 | 136.535 | 95.8483 | 102.524
Cc1cnc(-c2cc(Cl)ccc2F)cc1-n1c(=O)n(CC(N)=O)c2ccccc21 [Al11] | 79.8154 | 66.9379 | 96.9616 | 102.254 | 93.5042 | 89.0527 | 114.229 | 91.7467 | 99.824 | 109.542 | 113.608 | 109.646
Cc1c(NC(=O)COc2ccc(Cl)cc2C(=O)c2cc(F)cc(C(F)(F)F)c2)ccc(C(=O)O)c1F [BI 2540] | 131.143 | 97.0984 | 110.069 | 102.946 | 79.1363 | 91.7704 | 120.435 | 101.06 | 66.158 | 145.555 | 86.1051 | 111.497
CN(C)[C@@H]1CCN(c2cc(-c3ccccc3)nc3ccnn23)C1 [(R)-ZINC-3573] | 122.992 | 121.371 | 72.8757 | 94.4779 | 103.063 | 100.336 | 115.069 | 113.962 | 97.0418 | 99.7993 | 84.3174 | 93.0838
CN1CCN(Cc2cc(NC(=O)c3ccc4c(c3)CN(c3ccccc3)CC4)cc(C(F)(F)F)c2)CC1 | 103.855 | 89.7391 | 108.49 | 105.467 | 99.7753 | 107.038 | 129.235 | 97.9505 | 90.0307 | 84.0381 | 92.4079 | 96.3902
